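96-well plates; 48 h exposure; 5 concentrations. Endpoints by linear interpolation between flanking doses. Not reached: highest tested concentration assigned. GI50: concentration for 50% inhibition of growth.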 Calls of active or inactive are those of the source. No stated cut-off is given here; in the data, active = GI50 up to about 1.1 µM and inactive = higher.
Tests used:
Assay in all cases: inhibition of tumour cell growth, NCI panel, 48 h
[1] = tested on: HCC 2998
[2] = tested on: HL-60
[3] = tested on: MOLT-4
[4] = tested on: OVCAR-8
[5] = tested on: OVCAR-5
[6] = tested on: A549
[7] = tested on: RPMI-8226
[8] = tested on: SNB-19
[9] = tested on: Malme-3M
[10] = tested on: HCT-116
[11] = tested on: NCI/ADR-RES
[12] = tested on: UACC-62
[13] = tested on: K562
[14] = tested on: SF-539
[15] = tested on: SK-MEL-28
[16] = tested on: MCF7
[17] = tested on: NCI-H23
[18] = tested on: RXF 393
[19] = tested on: DU-145
[20] = tested on: NCI-H226

Row | Compound | GI50 [1] | GI50 [2] | GI50 [3] | GI50 [4] | GI50 [5] | GI50 [6] | GI50 [7] | GI50 [8] | GI50 [9] | GI50 [10] | GI50 [11] | GI50 [12] | GI50 [13] | GI50 [14] | GI50 [15] | GI50 [16] | GI50 [17] | GI50 [18] | GI50 [19] | GI50 [20]
1 | O=C(Nc1ccccc1)c1cc2c(cc1Cl)Sc1nccn1S2(=O)=O | 18.5 µM (inactive) | 15.8 µM (inactive) | 15.6 µM (inactive) | 58.2 µM (inactive) | 27.2 µM (inactive) | 36.4 µM (inactive) | 19.8 µM (inactive) | > 100 µM (inactive) | 30.1 µM (inactive) | 12.1 µM (inactive) | 41.8 µM (inactive) | 17.6 µM (inactive) | 28.2 µM (inactive) | 23 µM (inactive) | 18 µM (inactive) | 12.6 µM (inactive) | 18.4 µM (inactive) | 17.7 µM (inactive) | 18.9 µM (inactive) | –
2 | Nc1nc(N)c2ncn(Cc3ccccc3)c2n1 | > 100 µM (inactive) | – | > 100 µM (inactive) | > 100 µM (inactive) | > 100 µM (inactive) | > 100 µM (inactive) | > 100 µM (inactive) | > 100 µM (inactive) | > 100 µM (inactive) | > 100 µM (inactive) | > 100 µM (inactive) | > 100 µM (inactive) | – | > 100 µM (inactive) | > 100 µM (inactive) | > 100 µM (inactive) | > 100 µM (inactive) | > 100 µM (inactive) | > 100 µM (inactive) | > 100 µM (inactive)
3 | C=CC(O)(CBr)CCC(Br)C(C)(C)Cl (centres undefined) | > 10 µM (inactive) | – | > 10 µM (inactive) | > 10 µM (inactive) | > 10 µM (inactive) | > 10 µM (inactive) | > 10 µM (inactive) | > 10 µM (inactive) | > 10 µM (inactive) | > 10 µM (inactive) | > 10 µM (inactive) | – | > 10 µM (inactive) | > 10 µM (inactive) | > 10 µM (inactive) | > 10 µM (inactive) | > 10 µM (inactive) | > 10 µM (inactive) | > 10 µM (inactive) | > 10 µM (inactive)
4 | Fc1ccc(/C=C2\COCC3=C2NC(=S)NC3c2ccc(F)cc2)cc1 (centres undefined) | 18.5 µM (inactive) | 10.5 µM (inactive) | 20 µM (inactive) | 15.2 µM (inactive) | 21.1 µM (inactive) | – | 16.5 µM (inactive) | 23.6 µM (inactive) | – | 17.3 µM (inactive) | 19.1 µM (inactive) | 17.2 µM (inactive) | 19 µM (inactive) | 20 µM (inactive) | – | 19.1 µM (inactive) | 20.6 µM (inactive) | 16.6 µM (inactive) | 26.5 µM (inactive) | 21.1 µM (inactive)
5 | O=C(O)c1ccc(N2C=[N+]3C(=Nc4ccccc43)C2)cc1 | > 100 µM (inactive) | > 100 µM (inactive) | – | > 100 µM (inactive) | > 100 µM (inactive) | > 100 µM (inactive) | > 100 µM (inactive) | > 100 µM (inactive) | 0.475 µM (active) | > 100 µM (inactive) | > 100 µM (inactive) | > 100 µM (inactive) | > 100 µM (inactive) | – | > 100 µM (inactive) | > 100 µM (inactive) | > 100 µM (inactive) | > 100 µM (inactive) | > 100 µM (inactive) | > 100 µM (inactive)
6 | COc1ccc(N[S+]([O-])c2ccc(Cl)cc2)cc1 (centres undefined) | 30.7 µM (inactive) | 38.5 µM (inactive) | 20.6 µM (inactive) | 73.3 µM (inactive) | – | 23.5 µM (inactive) | 39.4 µM (inactive) | 93.1 µM (inactive) | 24.3 µM (inactive) | 14.5 µM (inactive) | 38.8 µM (inactive) | 8.43 µM (inactive) | 34.4 µM (inactive) | 11.9 µM (inactive) | > 100 µM (inactive) | 32.6 µM (inactive) | 50.5 µM (inactive) | – | 43.5 µM (inactive) | 19.5 µM (inactive)
7 | COc1cc(S(=O)(=O)Nc2ccc(-c3csc(N4C(=O)CSC4c4ccccc4O)n3)cc2)ccc1Cl (centres undefined) | 21.6 µM (inactive) | 22.2 µM (inactive) | 88.3 µM (inactive) | 55.1 µM (inactive) | 79.6 µM (inactive) | 61.8 µM (inactive) | 60.5 µM (inactive) | 57.9 µM (inactive) | 42.5 µM (inactive) | 32.8 µM (inactive) | > 100 µM (inactive) | 29.4 µM (inactive) | 34.8 µM (inactive) | 34.8 µM (inactive) | 24.5 µM (inactive) | 30.9 µM (inactive) | 31.5 µM (inactive) | – | 35.4 µM (inactive) | 32.9 µM (inactive)
8 | Cn1c(=O)c2c(n(C)c1=O)n1c(=O)c3ccccc3nc1n2C | > 100 µM (inactive) | – | > 100 µM (inactive) | 97.9 µM (inactive) | > 100 µM (inactive) | > 100 µM (inactive) | > 100 µM (inactive) | > 100 µM (inactive) | – | > 100 µM (inactive) | > 100 µM (inactive) | 46.9 µM (inactive) | > 100 µM (inactive) | > 100 µM (inactive) | > 100 µM (inactive) | > 100 µM (inactive) | > 100 µM (inactive) | > 100 µM (inactive) | > 100 µM (inactive) | 30.7 µM (inactive)
9 | Cn1c(COC(=O)NC2CCCCC2)c(COC(=O)NC2CCCCC2)c2ccc3cc(C=O)ccc3c21 | > 100 µM (inactive) | 38.1 µM (inactive) | > 100 µM (inactive) | > 100 µM (inactive) | > 100 µM (inactive) | > 100 µM (inactive) | – | > 100 µM (inactive) | > 100 µM (inactive) | > 100 µM (inactive) | > 100 µM (inactive) | > 100 µM (inactive) | > 100 µM (inactive) | > 100 µM (inactive) | – | > 100 µM (inactive) | > 100 µM (inactive) | 51.1 µM (inactive) | > 100 µM (inactive) | > 100 µM (inactive)
10 | O=C1CC(c2ccccc2)n2cccc21 (centres undefined) | > 100 µM (inactive) | 65.6 µM (inactive) | > 10 µM (inactive) | > 100 µM (inactive) | > 100 µM (inactive) | > 100 µM (inactive) | > 100 µM (inactive) | > 100 µM (inactive) | – | > 100 µM (inactive) | > 100 µM (inactive) | > 100 µM (inactive) | > 100 µM (inactive) | > 100 µM (inactive) | > 100 µM (inactive) | > 100 µM (inactive) | > 100 µM (inactive) | > 100 µM (inactive) | > 100 µM (inactive) | > 100 µM (inactive)
11 | O=C(CCCc1cccc2[nH]c3c(c12)CN(Cc1ccccc1)CC3)c1ccc(F)cc1 | 11.9 µM (inactive) | – | 15.3 µM (inactive) | > 100 µM (inactive) | > 48.1 µM (inactive) | > 95.9 µM (inactive) | 12.8 µM (inactive) | > 100 µM (inactive) | 40.9 µM (inactive) | 18.7 µM (inactive) | > 100 µM (inactive) | 49.1 µM (inactive) | 7.01 µM (inactive) | > 47.8 µM (inactive) | > 100 µM (inactive) | > 100 µM (inactive) | 16.3 µM (inactive) | > 29.9 µM (inactive) | > 100 µM (inactive) | > 95.3 µM (inactive)
12 | CC(C)c1ccc(NC(=S)NC(=O)c2ccccc2)cc1 | 16 µM (inactive) | 3.82 µM (inactive) | 13.1 µM (inactive) | 32.3 µM (inactive) | 28.3 µM (inactive) | 30.8 µM (inactive) | 23.7 µM (inactive) | 48.4 µM (inactive) | 24.5 µM (inactive) | 22.2 µM (inactive) | 31.7 µM (inactive) | 13.6 µM (inactive) | 12.1 µM (inactive) | 36.2 µM (inactive) | 20.8 µM (inactive) | 18.4 µM (inactive) | 23 µM (inactive) | 18.6 µM (inactive) | 23.2 µM (inactive) | –
13 | N#C/C(C(=O)Nc1ccc(Cl)cc1)=C(/N)N1CCCCC1 | > 100 µM (inactive) | 10 µM (inactive) | > 100 µM (inactive) | 41.2 µM (inactive) | > 100 µM (inactive) | > 100 µM (inactive) | > 100 µM (inactive) | 36.8 µM (inactive) | – | 99.5 µM (inactive) | 79.3 µM (inactive) | 42.5 µM (inactive) | > 100 µM (inactive) | 75.7 µM (inactive) | > 100 µM (inactive) | > 100 µM (inactive) | 64.4 µM (inactive) | – | > 100 µM (inactive) | 92.3 µM (inactive)
14 | Clc1cc2nn(C3CCCCO3)nc2cc1Cl (centres undefined) | > 100 µM (inactive) | – | > 100 µM (inactive) | > 100 µM (inactive) | > 100 µM (inactive) | > 100 µM (inactive) | – | > 100 µM (inactive) | > 100 µM (inactive) | > 100 µM (inactive) | > 100 µM (inactive) | > 100 µM (inactive) | > 100 µM (inactive) | > 100 µM (inactive) | – | > 100 µM (inactive) | > 100 µM (inactive) | > 100 µM (inactive) | > 100 µM (inactive) | > 100 µM (inactive)
15 | O=C(CCc1ccc(O)cc1)NCCCNC(=O)CCc1ccc(O)cc1 | > 100 µM (inactive) | – | > 100 µM (inactive) | > 100 µM (inactive) | > 100 µM (inactive) | > 100 µM (inactive) | > 100 µM (inactive) | > 100 µM (inactive) | > 100 µM (inactive) | > 100 µM (inactive) | > 100 µM (inactive) | > 100 µM (inactive) | > 100 µM (inactive) | > 100 µM (inactive) | > 100 µM (inactive) | > 100 µM (inactive) | > 100 µM (inactive) | > 100 µM (inactive) | > 100 µM (inactive) | > 100 µM (inactive)

— ChEMBL document CHEMBL1201862, “PubChem BioAssay data set” (2004)
